According to ChEMBL document CHEMBL2034824, “Pyridyl-2,5-diketopiperazines as potent, selective, and orally bioavailable oxytocin antagonists: synthesis, pharmacokinetics, and in vivo potency” (J Med Chem, 2012):
In brackets after ≈: the same amount, converted by molar mass.

Assays:
[1] = biological target: T1, Oxytocin receptor (Homo sapiens, UniProt P30559); experiment: Antagonist activity at human oxytocin receptor assessed as inhibition of oxytocin binding by FLIPR analysis
T1 sequence (P30559 whole entry): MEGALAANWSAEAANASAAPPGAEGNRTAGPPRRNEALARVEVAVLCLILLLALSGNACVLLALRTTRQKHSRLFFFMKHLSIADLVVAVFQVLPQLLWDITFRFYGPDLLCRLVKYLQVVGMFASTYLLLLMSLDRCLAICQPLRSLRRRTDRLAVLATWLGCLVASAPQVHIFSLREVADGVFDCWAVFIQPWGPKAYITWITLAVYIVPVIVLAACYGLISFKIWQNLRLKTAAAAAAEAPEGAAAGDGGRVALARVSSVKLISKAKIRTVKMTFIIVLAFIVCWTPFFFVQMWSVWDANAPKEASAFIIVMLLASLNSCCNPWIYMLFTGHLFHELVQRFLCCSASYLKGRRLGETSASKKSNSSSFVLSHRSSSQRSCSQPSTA

[2] = biological target: T1, Oxytocin receptor; experiment: Displacement of [3H]oxytocin from human oxytocin receptor
[3] = Oral bioavailability in rat at 5 mg/kg; assay type: ADME, organism-based; conditions: in vivo
[4] = AUC in rat at 5 mg/kg, po; assay type: ADME, organism-based; parameters: dose 5 mg/kg, route oral; conditions: plasma
[5] = Clearance in rat at 5 mg/kg; assay type: ADME, organism-based; parameters: dose 5 mg/kg; conditions: in vivo
[6] = biological target: serum albumin (Rattus norvegicus, UniProt P02770); experiment: Binding affinity to rat serum albumin; assay type: ADME; conditions: read-out: PB (converted)
serum albumin (Rattus norvegicus, UniProt P02770), sequence (P02770 whole entry): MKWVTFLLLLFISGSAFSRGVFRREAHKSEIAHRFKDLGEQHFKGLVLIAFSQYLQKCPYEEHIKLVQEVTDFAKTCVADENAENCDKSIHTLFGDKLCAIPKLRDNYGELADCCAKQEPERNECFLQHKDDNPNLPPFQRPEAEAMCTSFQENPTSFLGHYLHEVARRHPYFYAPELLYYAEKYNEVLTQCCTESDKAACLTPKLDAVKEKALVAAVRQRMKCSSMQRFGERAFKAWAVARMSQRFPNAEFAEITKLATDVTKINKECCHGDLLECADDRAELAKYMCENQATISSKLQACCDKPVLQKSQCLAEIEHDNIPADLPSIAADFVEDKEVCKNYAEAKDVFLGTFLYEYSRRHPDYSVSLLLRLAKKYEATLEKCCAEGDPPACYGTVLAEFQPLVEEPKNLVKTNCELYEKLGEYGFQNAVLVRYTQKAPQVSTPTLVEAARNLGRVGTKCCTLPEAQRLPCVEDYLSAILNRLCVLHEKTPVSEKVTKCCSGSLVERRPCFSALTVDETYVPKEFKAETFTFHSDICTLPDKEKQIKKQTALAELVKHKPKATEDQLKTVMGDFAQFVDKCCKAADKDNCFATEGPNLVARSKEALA

[7] = Lipophilicity, log D of the compound by HPLC analysis; assay type: physicochemical
[8] = Aqueous solubility of the compound by HPLC analysis; assay type: physicochemical
[9] = biological target: serum albumin (Homo sapiens, UniProt P02768); experiment: Binding affinity to human serum albumin; assay type: ADME; conditions: read-out: PB (converted)
serum albumin (Homo sapiens, UniProt P02768), sequence (P02768 whole entry): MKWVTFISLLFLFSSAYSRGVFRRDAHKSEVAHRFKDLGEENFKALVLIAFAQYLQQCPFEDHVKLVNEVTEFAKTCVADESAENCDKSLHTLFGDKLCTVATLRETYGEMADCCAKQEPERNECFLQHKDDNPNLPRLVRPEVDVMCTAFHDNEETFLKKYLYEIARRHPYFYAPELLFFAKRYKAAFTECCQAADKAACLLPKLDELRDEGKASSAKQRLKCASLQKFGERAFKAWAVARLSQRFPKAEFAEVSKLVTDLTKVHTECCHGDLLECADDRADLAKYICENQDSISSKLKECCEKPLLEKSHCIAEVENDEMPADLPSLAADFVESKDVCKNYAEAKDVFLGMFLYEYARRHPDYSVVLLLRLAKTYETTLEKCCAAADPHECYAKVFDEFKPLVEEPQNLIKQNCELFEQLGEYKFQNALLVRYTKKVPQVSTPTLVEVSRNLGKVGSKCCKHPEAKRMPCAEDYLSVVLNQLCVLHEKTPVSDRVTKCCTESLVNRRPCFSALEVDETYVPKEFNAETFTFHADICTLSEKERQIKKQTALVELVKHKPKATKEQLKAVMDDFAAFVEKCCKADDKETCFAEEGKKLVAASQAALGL

[10] = AUC in dog at 0.6 mg/kg, po; assay type: ADME, organism-based, Canis lupus familiaris; parameters: dose 0.6 mg/kg, route oral; conditions: plasma
[11] = Oral bioavailability in dog at 0.6 mg/kg; assay type: ADME, organism-based, Canis lupus familiaris; conditions: in vivo
[12] = Clearance in dog at 0.6 mg/kg; assay type: ADME, organism-based, Canis lupus familiaris; parameters: dose 0.6 mg/kg; conditions: in vivo
[13] = tested on: Liver; experiment: Intrinsic clearance in dog liver microsomes; assay type: ADME, Canis lupus familiaris, Microsome
[14] = tested on: Liver microsomes; experiment: Intrinsic clearance in human liver microsomes; assay type: ADME, Microsome
[15] = AUC in cynomolgus monkey at 2 mg/kg, po; assay type: ADME, organism-based, Macaca fascicularis; parameters: dose 2 mg/kg, route oral; conditions: plasma
[16] = Intrinsic clearance in cynomolgus monkey liver microsomes; assay type: ADME, Macaca fascicularis, Microsome
[17] = tested on: Liver microsomes; experiment: Intrinsic clearance in rat liver microsomes; assay type: ADME, Microsome
[18] = Oral bioavailability in cynomolgus monkey at 2 mg/kg; assay type: ADME, organism-based, Macaca fascicularis; conditions: in vivo
[19] = Clearance in cynomolgus monkey at 2 mg/kg; assay type: ADME, organism-based, Macaca fascicularis; parameters: dose 2 mg/kg; conditions: in vivo

| SMILES | Ki [1] [nM] | Ki [2] [nM] | bioavailability [3] [%] | AUC [4] [ng·h/mL] | clearance [5] [mL/min/kg] | fraction unbound [6] | logD [7] | solubility [8] [µg/mL] | fraction unbound [9] | also measured |
| --- | --- | --- | --- | --- | --- | --- | --- | --- | --- | --- |
| CC(C)C[C@@H]1C(=O)N[C@H](C2Cc3ccccc3C2)C(=O)N1[C@@H](C(=O)NC(C)C)c1ccccc1-c1ccccc1 | 39.8 | – | – | – | – | – | – | – | – | – |
| Cc1ccc([C@H](C(=O)N2CCCC2)N2C(=O)[C@@H](C3Cc4ccccc4C3)NC(=O)[C@H]2CC(C)C)cn1 | – | 0.501 | 36 | 920 | 33 | 0.3 | 2.3 | 241 (≈ 493 µM) | 0.24 | – |
| COc1ccc([C@H](C(=O)N(C)C)N2C(=O)[C@@H](C3Cc4ccccc4C3)NC(=O)[C@H]2CC(C)C)cn1 | – | 0.398 | 62 | 2230 | 23 | 0.14 | 2.7 | 216 (≈ 451 µM) | 0.08 | AUC [10]: 158 ng·h/mL; bioavailability [11]: 13%; clearance [12]: 8 mL/min/kg |
| CC(C)C[C@@H]1C(=O)N[C@H](C2Cc3ccccc3C2)C(=O)N1[C@@H](C(=O)NC(C)C)c1ccccc1Cl | 3.98 | – | – | – | – | – | – | – | – | – |
| CC[C@H](C)[C@@H]1C(=O)N[C@H](C2Cc3ccccc3C2)C(=O)N1[C@@H](C(=O)N(C)C)c1ccc(C)nc1C | – | 0.0794 | 84 | 4720 | 15 | – | – | – | – | AUC [10]: 305 ng·h/mL; CLH [13]: 1 mL/min/g; CLH [14]: 7 mL/min/g; AUC [15]: 17 ng·h/mL; CLH [16]: 14 mL/min/g; bioavailability [11]: 44%; CLH [17]: 1 mL/min/g; bioavailability [18]: 1%; clearance [19]: 20 mL/min/kg; clearance [12]: 14 mL/min/kg |
| CCc1ccccc1[C@H](C(=O)NC(C)C)N1C(=O)[C@@H](C2Cc3ccccc3C2)NC(=O)[C@H]1CC(C)C | 15.8 | – | – | – | – | – | – | – | – | – |
| CCC(CC)[C@@H]1C(=O)N[C@H](C2Cc3ccccc3C2)C(=O)N1[C@@H](C(=O)NC)c1ccc(C)nc1 | – | 0.1 | 28 | 1470 | 17 | – | – | – | – | AUC [10]: 173 ng·h/mL; CLH [13]: 2 mL/min/g; CLH [14]: 4 mL/min/g; AUC [15]: 29 ng·h/mL; CLH [16]: 8 mL/min/g; bioavailability [11]: 38%; CLH [17]: 1 mL/min/g; bioavailability [18]: 4%; clearance [19]: 24 mL/min/kg; clearance [12]: 22 mL/min/kg |
| CCC(CC)[C@@H]1C(=O)N[C@H](C2Cc3ccccc3C2)C(=O)N1[C@@H](C(=O)N1CCOCC1)c1ccc(C)nc1C | – | 0.0316 | 42 | 2330 | 15 | – | – | – | – | CLH [13]: 1 mL/min/g; CLH [14]: 11 mL/min/g; AUC [15]: 11 ng·h/mL; CLH [16]: 14 mL/min/g; CLH [17]: 1 mL/min/g |
| CC(C)C[C@@H]1C(=O)N[C@H](C2Cc3ccccc3C2)C(=O)N1[C@@H](C(=O)NC(C)C)c1ccccc1C(F)(F)F | 31.6 | – | – | – | – | – | – | – | – | – |
| Cc1ccccc1[C@H](C(=O)NC(C)C)N1C(=O)[C@@H](C2Cc3ccccc3C2)NC(=O)[C@H]1CC(C)C | 7.94 | – | – | – | – | – | – | – | – | – |
| Cc1ccc([C@H](C(=O)N(C)C)N2C(=O)[C@@H](C3Cc4ccccc4C3)NC(=O)[C@H]2CC(C)C)cn1 | – | 1.58 | 57 | 2680 | 18 | 0.14 | 2.1 | > 236 | 0.17 | AUC [10]: 454 ng·h/mL; CLH [13]: 3 mL/min/g; CLH [14]: 11 mL/min/g; CLH [16]: 21 mL/min/g; bioavailability [11]: 26%; CLH [17]: 3 mL/min/g; clearance [12]: 6 mL/min/kg |
| COc1ccccc1[C@H](C(=O)NC(C)C)N1C(=O)[C@@H](C2Cc3ccccc3C2)NC(=O)[C@H]1CC(C)C | 31.6 | – | – | – | – | – | – | – | – | – |
| CC[C@H](C)[C@@H]1C(=O)N[C@H](C2Cc3ccccc3C2)C(=O)N1[C@@H](C(=O)N1CCOCC1)c1coc(C)n1 [RETOSIBAN] | – | – | – | – | – | – | – | – | – | CLH [14]: 3 mL/min/g; AUC [15]: 45 ng·h/mL; CLH [16]: 6 mL/min/g; bioavailability [18]: 10%; clearance [19]: 26 mL/min/kg |
| COc1ccc([C@H](C(=O)N2CCOCC2)N2C(=O)[C@@H](C3Cc4ccccc4C3)NC(=O)[C@H]2CC(C)C)cn1 | – | 0.251 | 88 | 2130 | 35 | 0.22 | 2.7 | 249 (≈ 478 µM) | 0.24 | – |
| COC(=O)c1ccccc1[C@@H](C(=O)NC(C)C)N1C(=O)[C@@H](C2Cc3ccccc3C2)NC(=O)[C@H]1CC(C)C | 158 | – | – | – | – | – | – | – | – | – |
| CC(C)C[C@@H]1C(=O)N[C@H](C2Cc3ccccc3C2)C(=O)N1[C@@H](C(=O)N1CCOCC1)c1ccc(N(C)C)nc1 | – | 0.316 | – | 80 | – | 0.29 | 2.9 | 235 (≈ 440 µM) | 0.3 | – |
| CC(C)C[C@@H]1C(=O)N[C@H](C2Cc3ccccc3C2)C(=O)N1[C@@H](C(=O)NC(C)C)c1ccccc1OC(F)(F)F | 39.8 | – | – | – | – | – | – | – | – | – |
| Cc1ccc([C@H](C(=O)N2CCOCC2)N2C(=O)[C@@H](C3Cc4ccccc4C3)NC(=O)[C@H]2CC(C)C)cn1 | – | 0.398 | – | 811 | – | 0.38 | 2.1 | > 253 | 0.33 | AUC [10]: 53 ng·h/mL; bioavailability [11]: 10%; clearance [12]: 17 mL/min/kg |
